Legend:
Assay type in all cases: in vivo
[1] = tested on: Leukemia P388; experiment: P388 leukemia in BDF1 mice, combined therapy with cytostatic
Procedure: (§1) An experimental study of the anti-tumor activity of the FB-13 preparation as a chemosensitizer was carried out on tumor models of P388 leukemia and Lewis metastatic lung carcinoma, which can be seen in Examples 5 and 6.
Leukemia P388 was intraperitoneally inoculated to hybrid mice BDF1. The inoculum was 10^6 leukemic cells in 0.2 ml normal saline. The preparation was administered at a dose 10 mg/kg, cisplatin—at a dose 2 mg/kg on days 1, 3, 5 and 7 post transplantation. The number of cured (surviving for 60 days) animals served as an assessment criterion.
Similar studies were carried out with the preparation FB-14 (50 mg/kg) and cyclophosphane (60 mg/kg).
Furthermore, a significant increase in the average life span (ILS) of the animals as compared to the control group is shown in FIG. 4b.

[2] = tested on: Lewis lung carcinoma; experiment: Lewis lung carcinoma in BDF1 mice, metastasis inhibition in the lungs
Procedure: as §1
Lewis lung carcinoma was subcutaneously inoculated to hybrid mice BDF1. The inoculum was 5×10^6 tumor cells. The combined effect of FB-13 and cisplatin was investigated. The index of metastasis inhibition (IMI in %) in the lungs served as the assessment criterion. When cisplatin was administered alone, IMI was 50%, in combined administration with FB-13, it was 100% (FIG. 2).

[3] = tested on: B-16 melanoma; experiment: B-16 melanoma in BDF1 mice, metastasis inhibition in the lungs
Procedure: Experimental B-16 melanoma was subcutaneously engrafted to hybrid mice BDF1. The inoculum was 5×10^6 tumor cells. The combined effect of FB-13 and cisplatin was investigated. The index of metastasis inhibition (IMI in %) in the lungs served as the assessment criterion. When cisplatin was administered alone, IMI was 52%, in combined administration with FB-13, it was 100%. Similar studies were carried out with hydroxamic acids based on oxalic acid (the compound L215) and based on tartaric acid (the compound L221). Tests for acute toxicity were carried out in the group of experimental oncology of the IPKhF of the RAS by intraperitoneal administration of the preparations in water to BDF1 mice. […] The use of these compounds at the minimum doses in combination with the minimum doses of cytostatics (when neither of the preparations taken alone provides a therapeutic effect) makes complete inhibition of the metastasis process in experimental B-16 melanoma or Lewis lung carcinoma possible. Furthermore, the use of dicarbonic acid oxyamides as agents for enhancing the anti-tumor effect makes it possible in a combination with the minimum amounts of oxyamide and a cytostatic (a unit dose of cytostatics being 4 times lower than a therapeutic dose) to enhance the efficacy in the treatment of P-388 leukemia (survival rate of the animals is 100%).

[4] = combined administration of FB-13 with cisplatin
[5] = cisplatin administered alone, s.c. inoculum 5x10^6 cells

Compound	number of cured (surviving for 60 days) animals ([1]; combined administration: FB-13 10 mg/kg and cisplatin 2 mg/kg on days 1, 3, 5 and 7)	index of metastasis inhibition (IMI) in the lungs [2, 4]	index of metastasis inhibition (IMI) in the lungs [3, 4]	number of cured (surviving for 60 days) animals ([1]; only cisplatin, 2 mg/kg on days 1, 3, 5 and 7 post transplantation, i.p. inoculum 10^6 cells)	index of metastasis inhibition (IMI) in the lungs [2, 5]	index of metastasis inhibition (IMI) in the lungs [3, 5]
NC(=O)C(N)=O.O=C(O)/C=C\C(=O)O [FB-13, Maleic acid monooxamide]	100%	100%	100%			
N.N.[Cl][Pt][Cl] [cisplatin]				66.7%	50%	52%

— patent US20080214671A1, “Dicarbonic Acid Derivatives, Metastasis Inhibitors and Agents Increasing Chemotherapeutic Activity of Anti-Tumor Preparations, Method for Enhancing the Cytostatic Efficiency and Metastasis Process Inhibiting Method” (priority 2005, published 2008)
